In patent publication US11986471B2, “Compounds and methods of use” (Tango Therapeutics, Inc., priority 2018, dated 2024):
pIC50: −log10 of the molar value.

What was measured:
HAP1 MTAP-intact = test: SDMA in-cell western assay, HAP1 MTAP-intact cell line; format: cell-based; settings: Homo sapiens
Source text: Table 1a also indicates IC50 values in an MTAP-isogenic cell line pair for exemplary compounds in an SDMA in-cell western assay (columns 7-8). HAP1 MTAP-intact is a cell line in which endogenous levels of MTAP are expressed, and HAP1 MTAP-deleted is an MTAP-null cell line. […] Compounds with a ratio in the SDMA in-cell western assay of equal to or greater than 3 fold are considered MTAP-selective.

HAP1 MTAP-deleted = test: SDMA in-cell western assay, HAP1 MTAP-deleted cell line; format: cell-based; settings: for pIC50: Homo sapiens, HAP1 MTAP-deleted cell line; for MTAP Intact/Deleted Ratio: IC50 ratio HAP1 MTAP-intact / HAP1 MTAP-deleted
Source text: Table 1a also indicates IC50 values in an MTAP-isogenic cell line pair for exemplary compounds in an SDMA in-cell western assay (columns 7-8). HAP1 MTAP-intact is a cell line in which endogenous levels of MTAP are expressed, and HAP1 MTAP-deleted is an MTAP-null cell line.

PRMT5 [1] = target: T1, PRMT5 (Homo sapiens, UniProt O14744); test: PRMT5 IC50 assay in the presence of MTA as cofactor; format: biochemical; settings: for pIC50: PRMT5, MTA as cofactor
T1 construct: purchased Viva (custom protein)
T1 sequence (O14744 whole entry): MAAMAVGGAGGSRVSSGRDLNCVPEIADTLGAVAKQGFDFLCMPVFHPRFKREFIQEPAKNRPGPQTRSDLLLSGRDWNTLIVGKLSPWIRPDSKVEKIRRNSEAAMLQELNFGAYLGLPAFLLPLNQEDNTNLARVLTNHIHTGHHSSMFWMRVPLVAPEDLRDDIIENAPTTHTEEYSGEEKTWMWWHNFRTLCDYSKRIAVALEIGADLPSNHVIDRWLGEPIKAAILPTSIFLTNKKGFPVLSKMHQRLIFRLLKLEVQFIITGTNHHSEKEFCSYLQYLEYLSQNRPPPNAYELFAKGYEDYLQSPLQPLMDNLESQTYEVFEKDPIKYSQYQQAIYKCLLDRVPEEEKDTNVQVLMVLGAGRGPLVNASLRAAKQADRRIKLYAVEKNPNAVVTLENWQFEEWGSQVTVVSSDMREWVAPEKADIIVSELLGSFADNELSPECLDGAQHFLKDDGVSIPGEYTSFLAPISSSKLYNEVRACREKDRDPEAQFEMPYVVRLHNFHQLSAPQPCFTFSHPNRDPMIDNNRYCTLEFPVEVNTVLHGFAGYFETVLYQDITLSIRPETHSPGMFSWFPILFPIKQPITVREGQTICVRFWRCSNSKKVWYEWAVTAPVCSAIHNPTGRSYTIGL
T1 sequence (Q9BQA1 whole entry partner): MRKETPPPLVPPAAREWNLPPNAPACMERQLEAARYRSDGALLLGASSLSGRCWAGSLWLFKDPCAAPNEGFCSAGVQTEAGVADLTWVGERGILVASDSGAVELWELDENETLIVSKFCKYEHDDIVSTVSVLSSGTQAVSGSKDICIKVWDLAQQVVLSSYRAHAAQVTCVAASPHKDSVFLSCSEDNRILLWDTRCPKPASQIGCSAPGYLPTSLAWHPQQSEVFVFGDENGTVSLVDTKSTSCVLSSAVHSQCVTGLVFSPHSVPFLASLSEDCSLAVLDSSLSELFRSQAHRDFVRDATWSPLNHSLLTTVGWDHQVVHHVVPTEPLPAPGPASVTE
Procedure, shortened: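 Potency against PRMT5 is compared across cofactor states, where IC50 equals Ki×1.5 with SAM present and Ki×13.5 with MTA present.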

PRMT5 [2] = target: T1, PRMT5; test: PRMT5 IC50 assay with no cofactor; format: biochemical
Procedure, shortened: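 Ki conversion: SAM arm, Ki=IC50/1.5; MTA arm, Ki=IC50/13.5. No-cofactor arm reported as IC50 only. Selectivity expressed as Ki(SAM)/Ki(MTA).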

PRMT5 [3] = target: T1, PRMT5; test: PRMT5 IC50 assay in the presence of SAM as cofactor; format: biochemical
Procedure, shortened: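 For the SAM-containing format, dividing IC50 by 1.5 yields Ki; for the MTA-containing format the divisor is 13.5. A third format without cofactor gives IC50 alone.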

[4] = ratio between Ki in the presence of SAM and Ki in the presence of MTA
[5] = ratio between the Ki in the presence of SAM and the Ki in the presence of MTA

Compound | pIC50 (HAP1 MTAP-intact) | pIC50 (HAP1 MTAP-deleted) | pIC50 (PRMT5 [1]) | pIC50 (PRMT5 [2]; read-out: No Co-factor IC50) | pIC50 (PRMT5 [3]) | pIC50 (PRMT5 [2]) | MTAP Intact/Deleted Ratio (HAP1 MTAP-deleted) | SAM/MTA Ratio (PRMT5 [1]; [4]) | SAM/MTA Ratio (PRMT5 [1]; [5])
CC(C)(C)N1CCN(c2cc(C(=O)NC[C@H](O)CN3CCc4c(ccc(OCc5cnco5)c4Cl)C3)cc(NC3CCC3)n2)CC1 [Compound 319, (S)-2-(4-(tert-butyl)piperazin-1-yl)-N-(3-(5-chloro-6-(oxazol-5-ylmethoxy)-3N-dihydroisoquinolin-2(1H)-yl)-2-hydroxypropyl)-6-(cyclobutylamino)isonicotinamide] | ≤ 5.00 | ≤ 5.00 | 6.30 to 7.30 | 5.30 to 6.30 | 6.30 to 7.30 |  | C* (an IC50 ratio of less than 3 fold between the IC50 in the HAP1 MTAP-intact cell line and the HAP1 MTAP-deleted cell line) | A (a Ki ratio greater than or equal to 10 fold between the Ki in the presence of SAM and the Ki in the presence of MTA) | 
Cc1c(OCc2cnco2)ccc2c1CCN(C[C@@H](O)CNC(=O)c1ccnc(NC3CN(C(=O)C4CCC4)C3)c1)C2 [Compound 586, (S)-2-((1-(cyclobutanecarbonyl)azetidin-3-yl)amino)-N-(2-hydroxy-3-(5-methyl-6-(oxazol-5-ylmethoxy)-3N-dihydroisoquinolin-2(1H)-yl)propyl)isonicotinamide] | ≤ 5.00 | 5.00 to 6.00 | 6.30 to 7.30 |  | 6.30 to 7.30 | 5.30 to 6.30 | B* (an IC50 ratio greater than or equal to 3 fold but lower than 10 fold between the IC50 in the HAP1 MTAP-intact cell line and the HAP1 MTAP-deleted cell line) |  | A (a Ki ratio greater than or equal to 10 fold between the Ki in the presence of SAM and the Ki in the presence of MTA)
O=C(NC[C@H](O)CN1CCc2c(ccc(OCc3cnco3)c2Cl)C1)c1cncc(NC2CCOC2)c1 (stereo partly drawn) [Compound 359, N—((S)-3-(5-chloro-6-(oxazol-5-ylmethoxy)-3N-dihydroisoquinolin-2(1H)-yl)-2-hydroxypropyl)-5-((tetrahydrofuran-3-yl)amino)nicotinamide] | ≤ 5.00 | 5.00 to 6.00 | 5.30 to 6.30 | ≤ 5.30 | 5.30 to 6.30 |  | C* (an IC50 ratio of less than 3 fold between the IC50 in the HAP1 MTAP-intact cell line and the HAP1 MTAP-deleted cell line) | A (a Ki ratio greater than or equal to 10 fold between the Ki in the presence of SAM and the Ki in the presence of MTA) | 
O=C(NC[C@H](O)CN1CCc2cc(OCc3cnco3)ccc2C1)c1cncc(NC2CCOC2)c1 (stereo partly drawn) [Compound 355, N—((S)-2-hydroxy-3-(6-(oxazol-5-ylmethoxy)-3,4-dihydroisoquinolin-2(1H)-yl)propyl)-5-((tetrahydrofuran-3-yl)amino)nicotinamide] | ≤ 5.00 | ≤ 5.00 | 6.30 to 7.30 | ≤ 5.30 | 5.30 to 6.30 |  | C* (an IC50 ratio of less than 3 fold between the IC50 in the HAP1 MTAP-intact cell line and the HAP1 MTAP-deleted cell line) | A (a Ki ratio greater than or equal to 10 fold between the Ki in the presence of SAM and the Ki in the presence of MTA) | 
CC(=O)N1CC(Nc2cc(C(=O)NC[C@H](O)CN3CCc4c(ccc(OCc5ocnc5C)c4C)C3)nc(C(C)(C)C)n2)C1 [Compound 569, (S)-6-((1-acetylazetidin-3-yl)amino)-2-(tert-butyl)-N-(2-hydroxy-3-(5-methyl-6-((4-methyloxazol-5-yl)methoxy)-3,4-dihydroisoquinolin-2(1H)-yl)propyl)pyrimidine-4-carboxamide] | ≤ 5.00 | 5.00 to 6.00 | 6.30 to 7.30 |  | 6.30 to 7.30 | ≤ 5.30 | B* (an IC50 ratio greater than or equal to 3 fold but lower than 10 fold between the IC50 in the HAP1 MTAP-intact cell line and the HAP1 MTAP-deleted cell line) |  | A (a Ki ratio greater than or equal to 10 fold between the Ki in the presence of SAM and the Ki in the presence of MTA)
CCC(=O)N1CCN(c2nc(NC3COC3)cc(C(=O)NC[C@H](O)CN3CCc4cc(OCc5cnco5)ccc4C3)n2)CC1 [Compound 309, (S)—N-(2-hydroxy-3-(6-(oxazol-5-ylmethoxy)-3,4-dihydroisoquinolin-2(1H)-yl)propyl)-6-(oxetan-3-ylamino)-2-(4-propionylpiperazin-1-yl)pyrimidine-4-carboxamide] | ≤ 5.00 | 5.00 to 6.00 | 6.30 to 7.30 | 5.30 to 6.30 | 6.30 to 7.30 |  | C* (an IC50 ratio of less than 3 fold between the IC50 in the HAP1 MTAP-intact cell line and the HAP1 MTAP-deleted cell line) | A (a Ki ratio greater than or equal to 10 fold between the Ki in the presence of SAM and the Ki in the presence of MTA) | 

Now from value to compound, other results behind:

pIC50 (HAP1 MTAP-intact) | pIC50 (HAP1 MTAP-deleted) | pIC50 (PRMT5 [1]) | pIC50 (PRMT5 [2]; read-out: No Co-factor IC50) | pIC50 (PRMT5 [3]) | pIC50 (PRMT5 [2]) | Compound | MTAP Intact/Deleted Ratio (HAP1 MTAP-deleted) | SAM/MTA Ratio (PRMT5 [1]; [4]) | SAM/MTA Ratio (PRMT5 [1]; [5])
> 6.00 | > 6.00 | > 7.30 | 5.30 to 6.30 | 6.30 to 7.30 |  | Cc1ncoc1COc1ccc2c(c1)CCN(C[C@@H](O)CNC(=O)c1cc(NC3CCC3)nc(OCCN(C)C)c1)C2 [Compound 406, 2-(cyclobutylamino)-6-[2-(dimethylamino)ethoxy]-N-[(2S)-2-hydroxy-3-{6-[(4-methyl-1,3-oxazol-5-yl)methoxy]-1,2,3,4-tetrahydroisoquinolin-2-yl}propyl]pyridine-4-carboxamide] | B* (an IC50 ratio greater than or equal to 3 fold but lower than 10 fold between the IC50 in the HAP1 MTAP-intact cell line and the HAP1 MTAP-deleted cell line) | A (a Ki ratio greater than or equal to 10 fold between the Ki in the presence of SAM and the Ki in the presence of MTA) | 
≤ 5.00 | ≤ 5.00 | 6.30 to 7.30 |  | 6.30 to 7.30 | ≤ 5.30 | Cc1c(OCc2cnco2)ccc2c1CCN(C[C@@H](O)CNC(=O)c1ccnc(N[C@H]3C[C@@H](CO)C3)c1)C2 [Compound 487] | C* (an IC50 ratio of less than 3 fold between the IC50 in the HAP1 MTAP-intact cell line and the HAP1 MTAP-deleted cell line) |  | A (a Ki ratio greater than or equal to 10 fold between the Ki in the presence of SAM and the Ki in the presence of MTA)
≤ 5.00 | ≤ 5.00 | 6.30 to 7.30 |  | 6.30 to 7.30 | 5.30 to 6.30 | CCC(=O)N1CC(Nc2cc(C(=O)NC[C@H](O)CN3CCc4c(ccc(OCc5cnco5)c4C)C3)ccn2)C1 [Compound 495, (S)—N-(2-hydroxy-3-(5-methyl-6-(oxazol-5-ylmethoxy)-3,4-dihydroisoquinolin-2(1H)-yl)propyl)-2-((1-propionylazetidin-3-yl)amino)isonicotinamide] | C* (an IC50 ratio of less than 3 fold between the IC50 in the HAP1 MTAP-intact cell line and the HAP1 MTAP-deleted cell line) |  | A (a Ki ratio greater than or equal to 10 fold between the Ki in the presence of SAM and the Ki in the presence of MTA)
5.00 to 6.00 | 5.00 to 6.00 | 6.30 to 7.30 | 5.30 to 6.30 | 6.30 to 7.30 |  | CC(C)C(=O)N1CCN(c2nc(NC3COC3)cc(C(=O)NC[C@H](O)CN3CCc4cc(OCc5cnco5)ccc4C3)n2)CC1 [Compound 313] | C* (an IC50 ratio of less than 3 fold between the IC50 in the HAP1 MTAP-intact cell line and the HAP1 MTAP-deleted cell line) | A (a Ki ratio greater than or equal to 10 fold between the Ki in the presence of SAM and the Ki in the presence of MTA) | 
